IC50 data for 26 molecules are collected here from patent US12209087B2, “AKT1 modulators” (Alterome Therapeutics, Inc., priority 2022, dated 2025).

Structures are written as SMILES.

In the first assay the target is T1, full length AKT E17K (Homo sapiens, UniProt P31749, E17K).
T1 construct: host or cells: HEK-293 (ATCC CRL-1573)
T1 sequence (P31749 whole entry E17K): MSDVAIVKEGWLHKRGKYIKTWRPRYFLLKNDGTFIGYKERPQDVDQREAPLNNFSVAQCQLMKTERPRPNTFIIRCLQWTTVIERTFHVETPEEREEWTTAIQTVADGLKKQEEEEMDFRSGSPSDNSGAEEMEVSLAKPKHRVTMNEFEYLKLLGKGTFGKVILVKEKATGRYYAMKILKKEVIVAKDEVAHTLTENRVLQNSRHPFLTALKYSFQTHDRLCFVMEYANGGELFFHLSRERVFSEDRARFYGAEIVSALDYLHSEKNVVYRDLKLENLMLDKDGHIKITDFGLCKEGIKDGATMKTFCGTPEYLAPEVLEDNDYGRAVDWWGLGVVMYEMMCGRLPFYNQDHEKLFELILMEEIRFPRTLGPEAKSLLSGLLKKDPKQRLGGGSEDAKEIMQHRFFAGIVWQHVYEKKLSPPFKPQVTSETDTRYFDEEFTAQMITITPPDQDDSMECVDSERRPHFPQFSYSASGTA
Kind of assay: NanoBRET Target Engagement (TE) Assay. Type of assay: cell-based. Conditions: competitive displacement of tracer in cells, read-out: AKT1 E17K IC50. The method in brief:
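Compound and tracer incubated 2 h before luminescence at donor 450 nm and acceptor 600 nm, with extracellular signal inhibited. EC50 by sigmoidal variable-slope regression.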
For orientation: IC50 means the midpoint of a concentration-inhibition curve. On to `N#Cc1ncnc(N2CCN(Cc3ccc(-n4c(-c5cccnc5N)nc5ccc(-c6ccc(F)cc6)nc54)cc3)CC2)n1` [Example 368, 4-(4-(4-(2-(2-Aminopyridin-3-yl)-5-(4-fluorophenyl)-3H-imidazo[4,5-b]pyridin-3-yl)benzyl)piperazin-1-yl)-1,3,5-triazine-2-carbonitrile], for which the 50% inhibitory concentration (IC50) was under 15 nM.

Take `N#Cc1nccc(NC2CCN(Cc3ccc(-n4c(-c5cccnc5N)nc5ccc(-c6ccc(F)cn6)nc54)cc3)CC2)n1` [Example 456, 4-((1-(4-(2-(2-Aminopyridin-3-yl)-5-(5-fluoropyridin-2-yl)-3H-imidazo[4,5-b]pyridin-3-yl)benzyl)piperidin-4-yl)amino)pyrimidine-2-carbonitrile]: the half-inhibitory concentration (IC50) is under 15 nM.

Regarding `CCn1ncc(-c2ccc3nc(-c4cccnc4N)n(-c4ccc(CN5CCC(Nc6ccnc(C#N)n6)CC5)cc4)c3n2)n1` [Example 609, 4-((1-(4-(2-(2-Aminopyridin-3-yl)-5-(2-ethyl-2H-1,2,3-triazol-4-yl)-3H-imidazo[4,5-b]pyridin-3-yl)benzyl)piperidin-4-yl)amino)pyrimidine-2-carbonitrile], the half-inhibitory concentration (IC50) was under 15 nM. Consider `[2H]C([2H])(F)n1cc(-c2ccc3nc(-c4cccnc4N)n(-c4ccc(CN5CCC(Nc6ccnc(C#N)n6)CC5)cc4)c3n2)ccc1=O` [Example 624, 4-((1-(4-(2-(2-Aminopyridin-3-yl)-5-(1-(fluoromethyl-d2)-6-oxo-1,6-dihydropyridin-3-yl)-3H-imidazo[4,5-b]pyridin-3-yl)benzyl)piperidin-4-yl)amino)pyrimidine-2-carbonitrile], for which the IC50 lay in the range of 15 to 60 nM. On the same count and under the same terms, to `N#Cc1nccc(NC2CCN(Cc3ccc(-n4c(-c5cccnc5N)nc5ccc(O)nc54)cc3)CC2)n1` [Example 496, 4-((1-(4-(2-(2-Aminopyridin-3-yl)-5-hydroxy-3H-imidazo[4,5-b]pyridin-3-yl)benzyl)piperidin-4-yl)amino)pyrimidine-2-carbonitrile] belongs 15 to 60 nM; to `N#Cc1nccc(NC2CCN(Cc3ccc(-n4c(-c5cccnc5N)nc5ccc(-c6ncc(F)cn6)nc54)cc3)CC2)n1` [Example 603, 4-((1-(4-(2-(2-Aminopyridin-3-yl)-5-(5-fluoropyrimidin-2-yl)-3H-imidazo[4,5-b]pyridin-3-yl)benzyl)piperidin-4-yl)amino)pyrimidine-2-carbonitrile], under 15 nM; to `Cn1cc(-c2ccc3nc(-c4cccnc4N)n(-c4ccc(CN5CCC(Nc6nccc(C#N)n6)CC5)cc4)c3n2)ccc1=O` [Example 356, 2-((1-(4-(2-(2-Aminopyridin-3-yl)-5-(1-methyl-6-oxo-1,6-dihydropyridin-3-yl)-3H-imidazo[4,5-b]pyridin-3-yl)benzyl)piperidin-4-yl)amino)pyrimidine-4-carbonitrile], 60 to 600 nM.

In the case of `CC(C)c1ccc(-c2ccc3nc(-c4cccnc4N)n(-c4ccc(CN5CCC(Nc6ccnc(C#N)n6)CC5)cc4)c3n2)cn1` [Example 643, 4-((1-(4-(2-(2-Aminopyridin-3-yl)-5-(6-isopropylpyridin-3-yl)-3H-imidazo[4,5-b]pyridin-3-yl)benzyl)piperidin-4-yl)amino)pyrimidine-2-carbonitrile], the IC50 was under 15 nM. Consider `Cc1cc(-c2ccc3nc(-c4cccnc4N)n(-c4ccc(CN5CCC(Nc6ccnc(C#N)n6)CC5)cc4)c3n2)ccn1` [Example 477, 4-((1-(4-(2-(2-Aminopyridin-3-yl)-5-(2-methylpyridin-4-yl)-3H-imidazo[4,5-b]pyridin-3-yl)benzyl)piperidin-4-yl)amino)pyrimidine-2-carbonitrile], for which the half-maximal inhibitory concentration (IC50) is under 15 nM. The same measure, in the same setting: for `N#Cc1nccc(NC2CCN(Cc3ccc(-n4c(-c5cccnc5N)nc5ccc(-c6ccc(=O)n(CF)c6)nc54)cc3)CC2)n1` [Example 607, 4-((1-(4-(2-(2-Aminopyridin-3-yl)-5-(1-(fluoromethyl)-6-oxo-1,6-dihydropyridin-3-yl)-3H-imidazo[4,5-b]pyridin-3-yl)benzyl)piperidin-4-yl)amino)pyrimidine-2-carbonitrile] the value was 15 to 60 nM; for `[2H]C([2H])([2H])n1ncc(-c2ccc3nc(-c4nccnc4N)n(-c4ccc(CN5CCC(Nc6ccnc(C#N)n6)CC5)cc4)c3n2)n1` [Example 621, 4-((1-(4-(2-(3-Aminopyrazin-2-yl)-5-(2-(methyl-d3)-2H-1,2,3-triazol-4-yl)-3H-imidazo[4,5-b]pyridin-3-yl)benzyl)piperidin-4-yl)amino)pyrimidine-2-carbonitrile], under 15 nM; for `N#Cc1nccc(NC2CCN(Cc3ccc(-n4c(-c5cccnc5N)nc5ccc(-c6cnccc6F)nc54)cc3)CC2)n1` [Example 595, 4-((1-(4-(2-(2-Aminopyridin-3-yl)-5-(4-fluoropyridin-3-yl)-3H-imidazo[4,5-b]pyridin-3-yl)benzyl)piperidin-4-yl)amino)pyrimidine-2-carbonitrile], under 15 nM. Take `N#Cc1nccc(NC2CCN(Cc3ccc(-n4c(-c5cccnc5N)nc5ccc(-c6cn(CF)nn6)nc54)cc3)CC2)n1` [Example 619, 4-((1-(4-(2-(2-Aminopyridin-3-yl)-5-(1-(fluoromethyl)-1H-1,2,3-triazol-4-yl)-3H-imidazo[4,5-b]pyridin-3-yl)benzyl)piperidin-4-yl)amino)pyrimidine-2-carbonitrile]: the IC50 is under 15 nM. The same measure, in the same setting: for `N#Cc1nccc(NC2CCN(Cc3ccc(-n4c(-c5cccnc5N)nc5ccc(-c6ccncc6)nc54)cc3)CC2)n1` [Example 433, 4-((1-(4-(2-(2-Aminopyridin-3-yl)-5-(pyridin-4-yl)-3H-imidazo[4,5-b]pyridin-3-yl)benzyl)piperidin-4-yl)amino)pyrimidine-2-carbonitrile] the value was under 15 nM.

The assay is the same for the next values; noted with them: competitive tracer displacement in living cells, read-out: AKT1 E17K IC50.
In the case of `N#Cc1cccc(-c2ccc3nc(-c4cccnc4N)n(-c4ccc(CN5CCC(Nc6ccnc(C#N)n6)CC5)cc4)c3n2)c1` [Example 265, 4-((1-(4-(2-(2-Aminopyridin-3-yl)-5-(3-cyanophenyl)-3H-imidazo[4,5-b]pyridin-3-yl)benzyl)piperidin-4-yl)amino)pyrimidine-2-carbonitrile], the IC50 is under 15 nM. Regarding `C[C@H]1CN(Cc2ccc(-n3c(-c4cccnc4N)nc4ccc(-c5ccccc5)nc43)cc2)CCN1c1nccc(C#N)n1` [Example 207, (S)-2-(4-(4-(2-(2-Aminopyridin-3-yl)-5-phenyl-3H-imidazo[4,5-b]pyridin-3-yl)benzyl)-2-methylpiperazin-1-yl)pyrimidine-4-carbonitrile], the half-maximal inhibitory concentration (IC50) was in the range of 60 to 600 nM.

`N#Cc1cc(C(=O)N2CCN(Cc3ccc(-n4c(-c5cccnc5N)nc5cccnc54)cc3)CC2)ncn1` [Example 114, 6-(4-(4-(2-(2-Aminopyridin-3-yl)-3H-imidazo[4,5-b]pyridin-3-yl)benzyl)piperazine-1-carbonyl)pyrimidine-4-carbonitrile]: the IC50 was 60 to 600 nM. Consider `N#Cc1ccc(NC2CCN(Cc3ccc(-n4c(-c5cccnc5N)nc5ccc(-c6ccccc6)nc54)cc3)CC2)cn1` [Example 84, 5-((1-(4-(2-(2-Aminopyridin-3-yl)-5-phenyl-3H-imidazo[4,5-b]pyridin-3-yl)benzyl)piperidin-4-yl)amino)picolinonitrile], for which the IC50 lay in the range of 15 to 60 nM. As for `N#Cc1ccc(OC2CCN(Cc3ccc(-n4c(-c5cccnc5N)nc5ccc(-c6ccccc6)nc54)cc3)CC2)nc1` [Example 2, 6-((1-(4-(2-(2-Aminopyridin-3-yl)-5-phenyl-3H-imidazo[4,5-b]pyridin-3-yl)benzyl)piperidin-4-yl)oxy)nicotinonitrile], the 50% inhibitory concentration (IC50) lay in the range of 60 to 600 nM.

For the molecule `N#Cc1nccc(N2CCN(Cc3ccc(-n4c(-c5cccnc5N)nc5ccc(N6CCCNC(=O)C6)nc54)cc3)CC2)n1` [Example 317, 4-(4-(4-(2-(2-Aminopyridin-3-yl)-5-(3-oxo-1,4-diazepan-1-yl)-3H-imidazo[4,5-b]pyridin-3-yl)benzyl)piperazin-1-yl)pyrimidine-2-carbonitrile], the concentration for half-maximal inhibition (IC50) lay in the range of 60 to 600 nM. As to `N#Cc1cc(NC2CCN(Cc3ccc(-n4c(-c5cccnc5N)nc5ccc(N6CCOCC6)nc54)cc3)CC2)ncn1` [Example 241, 6-((1-(4-(2-(2-Aminopyridin-3-yl)-5-morpholino-3H-imidazo[4,5-b]pyridin-3-yl)benzyl)piperidin-4-yl)amino)pyrimidine-4-carbonitrile], the IC50 fell in the range of 15 to 60 nM. Take `N#Cc1cncc(NCc2ccc(-n3c(-c4cccnc4N)nc4cccnc43)cc2)c1` [Example 131, 5-((4-(2-(2-Aminopyridin-3-yl)-3H-imidazo[4,5-b]pyridin-3-yl)benzyl)amino)nicotinonitrile]: the half-inhibitory concentration (IC50) fell in the range of 600 to 10000 nM. Still for that read-out and setting: for `N#Cc1cc(C(=O)NCc2ccc(-n3c(-c4cccnc4N)nc4cc(-c5ccccc5)cnc43)cc2)ccn1` [Example 169, N-(4-(2-(2-Aminopyridin-3-yl)-6-phenyl-3H-imidazo[4,5-b]pyridin-3-yl)benzyl)-2-cyanoisonicotinamide] the value was 60 to 600 nM; for `N#Cc1cncc(NC2CCN(Cc3ccc(-n4c(-c5cccnc5N)nc5cccnc54)cc3)CC2)n1` [Example 76, 6-((1-(4-(2-(2-Aminopyridin-3-yl)-3H-imidazo[4,5-b]pyridin-3-yl)benzyl)piperidin-4-yl)amino)pyrazine-2-carbonitrile], 600 to 10000 nM. For the molecule `N#Cc1ccnc(NC2CCN(Cc3ccc(-n4c(-c5cccnc5N)nc5ccc(N6CCOCC6)nc54)cc3)CC2)n1` [Example 240, 2-((1-(4-(2-(2-Aminopyridin-3-yl)-5-morpholino-3H-imidazo[4,5-b]pyridin-3-yl)benzyl)piperidin-4-yl)amino)pyrimidine-4-carbonitrile], the concentration for half-maximal inhibition (IC50) was 15 to 60 nM. With `N#Cc1cncc(C(=O)N2CCN(Cc3ccc(-n4c(-c5cccnc5N)nc5ccc(-c6ccccc6)nc54)cc3)CC2)c1` [Example 139, 5-(4-(4-(2-(2-Aminopyridin-3-yl)-5-phenyl-3H-imidazo[4,5-b]pyridin-3-yl)benzyl)piperazine-1-carbonyl)nicotinonitrile], the IC50 lay within 600 to 10000 nM.
